According to patent publication US20260285850A1, “SUBSTITUTED OXAZOLIDINONES AND IMIDAZOLINONES AS HERBICIDES” (FMC CORPORATION, priority 2023, published 2026):

Assays:
Format in all cases: in vivo
[1] = system: ryegrass, Italian (italian ryegrass, Lolium multiflorum); assay: Test A postemergence application, visual injury rating 0-100
Outline: (§1)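 Scale 0–100 (no effect to complete control), visual, versus untreated controls, read 10 days after application. Application: preemergence directed spray onto seeded loam–sand soil, or postemergence to young plants; formulation in non-phytotoxic solvent with surfactant.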

[2] = system: green foxtail (Setaria viridis); assay: as above
Outline: as §1

[3] = system: palmer (palmer amaranth, palmer pigweed, Amaranthus palmeri); assay: as above
Outline: as §1

[4] = system: ragweed (common ragweed, Ambrosia artemisiifolia); assay: as above
Outline: as §1

[5] = system: horseweed (Erigeron canadensis); assay: as above
Outline: as §1

[6] = system: galium (catchweed bedstraw, Galium aparine); assay: as above
Outline: as §1

[7] = system: oat, wild (wild oat, Avena fatua); assay: as above
Outline: as §1

[8] = system: blackgrass (Alopecurus myosuroides); assay: as above
Outline: as §1

soybean (Glycine max) [9] = assay: as above
Outline: as §1

[10] = system: wheat (Triticum aestivum); assay: as above
Outline: as §1

kochia (Bassia scoparia) [11] = assay: as above
Outline: as §1

[12] = system: barnyardgrass (Echinochloa crus-galli); assay: as above
Outline: as §1

corn (Zea mays) [13] = assay: as above
Outline: as §1

[14] = system: ryegrass, Italian (italian ryegrass, Lolium multiflorum); assay: Test A preemergence soil spray, visual injury rating 0-100; conditions: 10 days
Outline: as §1

[15] = system: green foxtail (Setaria viridis); assay: as above; conditions: 10 days
Outline: as §1

[16] = system: palmer (palmer amaranth, palmer pigweed, Amaranthus palmeri); assay: as above; conditions: 10 days
Outline: as §1

[17] = system: ragweed (common ragweed, Ambrosia artemisiifolia); assay: as above; conditions: 10 days
Outline: as §1

[18] = system: oat, wild (wild oat, Avena fatua); assay: as above; conditions: 10 days
Outline: as §1

[19] = system: blackgrass (Alopecurus myosuroides); assay: as above; conditions: 10 days
Outline: as §1

soybean (Glycine max) [20] = assay: as above; conditions: 10 days
Outline: as §1

[21] = system: wheat (Triticum aestivum); assay: as above; conditions: 10 days
Outline: as §1

kochia (Bassia scoparia) [22] = assay: as above; conditions: 10 days
Outline: as §1

[23] = system: barnyardgrass (Echinochloa crus-galli); assay: as above; conditions: 10 days
Outline: as §1

corn (Zea mays) [24] = assay: as above; conditions: 10 days
Outline: as §1

rice (Oryza sativa) = assay: Test B flooded paddy test, visual plant response rating 0-100; conditions: 250 g ai/ha, Flood, applied to paddy water, evaluated after 13 days
Outline: (§2)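 In this flooded assay, 2-leaf seedlings received compound through the water layer, kept at 3 cm over the soil. Plants were held 13 days in a greenhouse and then visually compared with control pots.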

[25] = system: ducksalad (Heteranthera limosa); assay: as above; conditions: 250 g ai/ha, Flood, applied to paddy water, evaluated after 13 days
Outline: as §2

[26] = system: barnyardgrass (Echinochloa crusgalli); assay: as above; conditions: 250 g ai/ha, Flood, applied to paddy water, evaluated after 13 days
Outline: as §2

[27] = system: sedge, umbrella (small-flower umbrella sedge, Cyperus difformis); assay: as above; conditions: 250 g ai/ha, Flood, applied to paddy water, evaluated after 13 days
Outline: as §2

[28] = 62 g ai/ha, postemergence, 10 days, 0 = no effect, 100 = complete control
[29] = Postemergence, 16 g ai/ha, greenhouse 10 days, 0 no effect, 100 complete control
[30] = 62 g ai/ha, 0 = no effect, 100 = complete control

SMILES: CC1(C(=O)NC2C=CC(C(=O)O)C2)CN(c2cc(F)cc(F)c2)C(=O)O1 (stereo not shown) [Compound 138]
- Ryegrass, Italian plant response rating (0-100) [1, 28]: 90
- Ryegrass, Italian plant response rating (0 to 100 scale) [1, 29]: 60
- Foxtail, Green plant response rating (0-100) [2, 28]: 90
- Foxtail, Green plant response rating (0 to 100 scale) [2, 29]: 80
- Pigweed, Palmer plant response rating (0-100) [3, 28]: 90
- Pigweed, Palmer plant response rating (0 to 100 scale) [3, 29]: 90
- Ragweed plant response rating (0-100) [4, 28]: 80
- Ragweed plant response rating (0 to 100 scale) [4, 29]: 60
- Horseweed plant response rating (0-100) [5, 28]: 80
- Horseweed plant response rating (0 to 100 scale) [5, 29]: 50
- Galium plant response rating (0-100) [6, 28]: 90
- Galium plant response rating (0 to 100 scale) [6, 29]: 90
- Oat, Wild plant response rating (0-100) [7, 28]: 90
- Oat, Wild plant response rating (0 to 100 scale) [7, 29]: 90
- Blackgrass plant response rating (0-100) [8, 28]: 90
- Blackgrass plant response rating (0 to 100 scale) [8, 29]: 70
- Soybean plant response rating (0-100) (soybean (Glycine max) [9]; [28]): 60
- Soybean plant response rating (0 to 100 scale) (soybean (Glycine max) [9]; [29]): 60
- Wheat plant response rating (0-100) [10, 28]: 90
- Wheat plant response rating (0 to 100 scale) [10, 29]: 90
- Kochia plant response rating (0-100) (kochia (Bassia scoparia) [11]; [28]): 80
- Kochia plant response rating (0 to 100 scale) (kochia (Bassia scoparia) [11]; [29]): 80
- Barnyardgrass plant response rating (0-100) [12, 28]: 80
- Barnyardgrass plant response rating (0 to 100 scale) [12, 29]: 70
- Corn plant response rating (0-100) (corn (Zea mays) [13]; [28]): 100
- Corn plant response rating (0 to 100 scale) (corn (Zea mays) [13]; [29]): 100
- Ryegrass, Italian plant response rating ([14]; 16 g ai/ha, 0 to 100 scale): 70
- Ryegrass, Italian plant response rating (0-100) [14, 30]: 90
- Foxtail, Green plant response rating ([15]; 16 g ai/ha, 0 to 100 scale): 20
- Foxtail, Green plant response rating (0-100) [15, 30]: 90
- Pigweed, Palmer plant response rating ([16]; 16 g ai/ha, 0 to 100 scale): 30
- Pigweed, Palmer plant response rating (0-100) [16, 30]: 90
- Ragweed plant response rating ([17]; 16 g ai/ha, 0 to 100 scale): 0
- Ragweed plant response rating (0-100) [17, 30]: 40
- Oat, Wild plant response rating ([18]; 16 g ai/ha, 0 to 100 scale): 50
- Oat, Wild plant response rating (0-100) [18, 30]: 90
- Blackgrass plant response rating ([19]; 16 g ai/ha, 0 to 100 scale): 40
- Blackgrass plant response rating (0-100) [19, 30]: 70
- Soybean plant response rating (soybean (Glycine max) [20]; 16 g ai/ha, 0 to 100 scale): 30
- Soybean plant response rating (0-100) (soybean (Glycine max) [20]; [30]): 80
- Wheat plant response rating ([21]; 16 g ai/ha, 0 to 100 scale): 50
- Wheat plant response rating (0-100) [21, 30]: 90
- Kochia plant response rating (kochia (Bassia scoparia) [22]; 16 g ai/ha, 0 to 100 scale): 90
- Kochia plant response rating (0-100) (kochia (Bassia scoparia) [22]; [30]): 90
- Barnyardgrass plant response rating ([23]; 16 g ai/ha, 0 to 100 scale): 60
- Barnyardgrass plant response rating (0-100) [23, 30]: 100
- Corn plant response rating (corn (Zea mays) [24]; 16 g ai/ha, 0 to 100 scale): 60
- Corn plant response rating (0-100) (corn (Zea mays) [24]; [30]): 90
- Plant response rating, Rice (0 to 100 scale, 0 is no effect and 100 is complete control) (rice (Oryza sativa)): 95
- Plant response rating, Ducksalad (0 to 100 scale, 0 is no effect and 100 is complete control) [25]: 100
- Plant response rating, Barnyardgrass (0 to 100 scale, 0 is no effect and 100 is complete control) [26]: 95
- Plant response rating, Sedge, Umbrella (0 to 100 scale, 0 is no effect and 100 is complete control) [27]: 95
